Row | melting point | Compound
1 | 280 to 281 °C | CCC(=C(c1ccc(O)cc1)c1ccc(O)cc1)c1cccc(/C=C/C(=O)O)c1 [Example 1, (2E)-3-{3-[1-Ethyl-2,2-bis(4-hydroxyphenyl)ethenyl]phenyl}-2-propenoic acid]
2 | 173 to 174 °C | CCC(=C(c1ccc(O)cc1)c1ccc(O)cc1)c1cccc(-c2c(C)noc2C)c1 [Example 3, 4,4′-{2-[3-(3,5-Dimethyl-4-isoxazolyl)phenyl]-1-butene-1,1-diyl}diphenol]
